Data on 4 compounds can be found in patent US20070149404A1, “Microbicidal compositions” (BASF AKTIENGESELLSCHAFT, priority 2003, published 2007).

For experiment [1], the system named is fungi. The experiment can be described thus: Efficacy against fungal growth on painted wooden surface (BS3900 G6). In kind it is cell-based. The following applies: 0.5% in paint. As for the experimental part: (§1) Testing was performed according to the BS3900 G6 and BBA MOAT 33 methods for evaluation versus fungi and algae, respectively. The methods involve painting a substrate panel with the coating and leaching under running water for 72 hours. The substrates are incubated for 56 days after being inoculated with fungi or algae. Performance is judged by comparing with suitable control samples ie without biocide, a positive control and for fungi with substrate panels that have not been leached.
(§2) Performance rating on painted test substrates (Score of 0, 1 and 2 is considered as a pass) • 0=no growth • 1=trace of growth • 2=growth on 1-10% of test face • 3=growth on 10-30% of test face • 4=growth on 30-70% of test face
(§3) 5=growth on 70-100% of test face.

Another experiment relates to algae. The experiment can be described thus: Efficacy against algal growth on painted plaster surface (BBA MOAT 33). The following applies: 0.5% in paint. In kind it is cell-based. The protocol:
as §1, §2, §3

For a further experiment, the system named is Proteus mirabilis. The experiment is described as follows: Intrinsic activity, microtitre plate method, PM. The class given is cell-based. More on the design: key: rating 0 = no activity to 5 = biostatic, may be biocide. As for the experimental part:
(§4) The chemistries were tested for their activity against a range of organisms via a microtitre plate method. The test organisms were: • ML—Micrococcus luteus • SA—Staphylococcus aureus • EC—Escherichia coli • PA—Pseudomonas aeruginosa • CF—Citrobacter freundii • PM—Proteus mirabilis • CA—Candida albicans • SC—Saccharomyces cerevisiae • AN—Aspergillus niger • PF—Penicillium funiculosum • AA—Alternaria alternata
(§5) Using the following rating scale: • 0=no activity • 1=minimal inhibition • 2=inhibition • 3=clear inhibition • 4=clear inhibition biostatic, may be biocide activity • 5=biostatic, may be biocide activity
(§6) Readings of 4 and possibly 3 were considered to be valid for biocidal applications.

In the next experiment the test system is Escherichia coli. The experiment can be described thus: Intrinsic activity, microtitre plate method, EC. The class given is cell-based. More on the design: key: rating 0 = no activity to 5 = biostatic, may be biocide. As for the experimental part: as §4, §5, §6
A further experiment concerns Saccharomyces cerevisiae. The experiment is described as follows: Intrinsic activity, microtitre plate method, SC. The class given is cell-based. More on the design: key: rating 0 = no activity to 5 = biostatic, may be biocide. The protocol: as §4, §5, §6
The next experiment has as its system Citrobacter freundii. The experiment is described as follows: Intrinsic activity, microtitre plate method, CF. In kind it is cell-based. More on the design: key: rating 0 = no activity to 5 = biostatic, may be biocide. The protocol:
as §4, §5, §6

The test system of a further experiment is Alternaria alternata. The experiment can be described thus: Intrinsic activity, microtitre plate method, AA. More on the design: key: rating 0 = no activity to 5 = biostatic, may be biocide. In kind it is cell-based. As for the experimental part:
as §4, §5, §6

The subject of a further experiment is Staphylococcus aureus. The experiment can be described thus: Intrinsic activity, microtitre plate method, SA. Details: key: 0 = no activity to 5 = biostatic, may be biocide activity. In kind it is cell-based. As for the experimental part:
as §4, §5, §6

The next experiment deals with Penicillium funiculosum. The experiment can be described thus: Intrinsic activity, microtitre plate method, PF. The class given is cell-based. More on the design: key: rating 0 = no activity to 5 = biostatic, may be biocide. As for the experimental part:
as §4, §5, §6

Another experiment concerns Aspergillus niger. The experiment is described as follows: Intrinsic activity, microtitre plate method, AN. The class given is cell-based. More on the design: key: rating 0 = no activity to 5 = biostatic, may be biocide. As for the experimental part:
as §4, §5, §6

In the next experiment the test system is Bacteria. The experiment is described as follows: Intrinsic activity, microtitre plate method, mean score over bacteria. In kind it is cell-based, ML, SA, EC, PA, CF, PM. The note with it: performance against organisms/no of organisms, 0 to <3 poor, >3 inhibition, >4 biostasis, biocidal activity. The protocol: as §4, §5, §6
A further experiment relates to test bacteria and fungi. The experiment is described as follows: Intrinsic activity against bacteria and fungi, microtitre plate method, summary in words. In kind it is cell-based. The following applies: for Activity against the test bacteria and fungi: 1000 and 500 ppm a.i. The protocol: as §4, §5, §6
Another experiment deals with Pseudomonas aeruginosa. The experiment is described as follows: Intrinsic activity, microtitre plate method, PA. In kind it is cell-based. Details: key: rating 0 = no activity to 5 = biostatic, may be biocide. The protocol: as §4, §5, §6
Experiment [2] deals with Fungi. The experiment is described as follows: Intrinsic activity, microtitre plate method, mean score over fungi. In kind it is cell-based, CA, SC, AN, PF, AA. The note with it: performance against organisms/no of organisms, 0 to <3 poor, >3 inhibition, >4 biostasis, biocidal activity. The protocol: as §4, §5, §6
The next experiment deals with Candida albicans. The experiment is described as follows: Intrinsic activity, microtitre plate method, CA. In kind it is cell-based. Details: key: rating 0 = no activity to 5 = biostatic, may be biocide. As for the experimental part:
as §4, §5, §6

For another experiment, the system named is Micrococcus luteus. The experiment can be described thus: Intrinsic activity, microtitre plate method, ML. The class given is cell-based. More on the design: key: rating 0 = no activity to 5 = biostatic, may be biocide. As for the experimental part: as §4, §5, §6

Counter-ions that a name gives are not always drawn.

For `CCOCn1c(-c2ccc(Cl)cc2)c(C#N)c(Br)c1C(F)(F)F` [Chlorfenapyr, 4-Brom-2-(p-chlorphenyl)-1-(ethoxymethyl)-5-(tri-fluormethyl)-pyrrole-3-carbonitril], the “Improvement against fungal growth on the wood surface” value with fungi [1] is on record as “exhibited an improvement”. Also, the “MEAN FUNGAL GROWTH RATING - WOOD SUBSTRATE 28 days leached” value in the experiment with fungi [1] (constant running water for 72 hours, 28 days, mean of ratings 0-5) is given as 3 (3=growth on 10-30% of test face). Further, in the experiment on fungi [1] (constant running water for 72 hours, 56 days, mean of ratings 0-5), the “MEAN FUNGAL GROWTH RATING - WOOD SUBSTRATE 56 days leached” value was 3.5. The “% Improved After 56 days leached (fungal, wood)” value in the experiment on fungi [1] (leached 72 hours, versus unpreserved paint) was 12.5%. For the same compound, the “MEAN FUNGAL GROWTH RATING - WOOD SUBSTRATE 28 days as applied” value in the experiment with fungi [1] (no leaching with water, 28 days, mean of ratings 0-5) is recorded as 5 (5=growth on 70-100% of test face). In the experiment with fungi [1] (no leaching with water, 56 days, mean of ratings 0-5), the “MEAN FUNGAL GROWTH RATING - WOOD SUBSTRATE 56 days as applied” value is reported as 5 (5=growth on 70-100% of test face). Besides, the “MEAN ALGAL GROWTH RATING 28 days” value in the experiment with algae (painted plaster, leached 72 hours, 28 days after inoculation, mean of ratings 0-5) is reported as 3 (3=growth on 10-30% of test face). Further, the “MEAN ALGAL GROWTH RATING 56 days” value with algae (painted plaster, leached 72 hours, 56 days after inoculation, mean of ratings 0-5) is reported as 3.5. Besides, the “% Improved after 56 days (algal growth)” value with algae (painted plaster, versus unpreserved paint, 56 days) is 12.5%. Further, the “Improvement against algal growth on the plaster surface” value with algae (plaster) is on record as “exhibited an improvement”.

As for `CC(Oc1ccc(Cl)cc1Cl)C(=O)O` (stereo not shown) [Dichlorprop, 2,4-Dichlorophenoxy-propionic acid], the PM rating in the experiment on Proteus mirabilis (500 ppm a.i.) turned out to be 3; in the experiment on Proteus mirabilis (1000 ppm a.i.), 5. Also, the values for the EC rating in the experiment with Escherichia coli (500 ppm a.i.) and with Escherichia coli (1000 ppm a.i.) were 3 and 5, respectively. The results for the SC rating in the experiment with Saccharomyces cerevisiae (500 ppm a.i.) and in the experiment on Saccharomyces cerevisiae (1000 ppm a.i.) were 1 and 5, respectively. Also, the CF rating with Citrobacter freundii (500 ppm a.i.) came out at 3; in the experiment on Citrobacter freundii (1000 ppm a.i.), 5. The AA rating in the experiment with Alternaria alternata (500 ppm a.i.) and in the experiment with Alternaria alternata (1000 ppm a.i.) was 5 throughout. The SA rating with Staphylococcus aureus (500 ppm a.i.) was 3; in the experiment with Staphylococcus aureus (1000 ppm a.i.), 5. Further, the PF rating in the experiment on Penicillium funiculosum (500 ppm a.i.) and in the experiment on Penicillium funiculosum (1000 ppm a.i.) was 5 in each case. The AN rating with Aspergillus niger (500 ppm a.i.) and in the experiment with Aspergillus niger (1000 ppm a.i.) was 5 each time. In addition, the results for the “Bacteria Mean Score” value in the experiment on Bacteria (500 ppm a.i.) and with Bacteria (1000 ppm a.i.) were 3.3 and 5.0, respectively. Also, in the experiment on test bacteria and fungi, the “Activity against the test bacteria and fungi” value was “good activity”. Moreover, the PA rating is recorded as 3 in the experiment with Pseudomonas aeruginosa (500 ppm a.i.) and 5 in the experiment with Pseudomonas aeruginosa (1000 ppm a.i.). The “Fungi Mean Score” value in the experiment on Fungi [2] (500 ppm a.i.) is recorded as 3.6; with Fungi [2] (1000 ppm a.i.), 5.0. Besides, the CA rating in the experiment on Candida albicans (500 ppm a.i.) stood at 2; in the experiment with Candida albicans (1000 ppm a.i.) it was 5. In addition, the ML rating with Micrococcus luteus (500 ppm a.i.) and in the experiment on Micrococcus luteus (1000 ppm a.i.) was 5 in each case.

Take `CCCCCCCCCCCCNC(=N)N` [Dodine, 1-dodecylguanidinium hydrochloride or—acetate]: the PM rating in the experiment on Proteus mirabilis (500 ppm a.i.) and in the experiment on Proteus mirabilis (1000 ppm a.i.) was 5 throughout. The EC rating in the experiment on Escherichia coli (500 ppm a.i.) and in the experiment with Escherichia coli (1000 ppm a.i.) was 5 in each case. Besides, the SC rating in the experiment on Saccharomyces cerevisiae (500 ppm a.i.) and in the experiment with Saccharomyces cerevisiae (1000 ppm a.i.) was 5 in each case. The CF rating in the experiment with Citrobacter freundii (500 ppm a.i.) and in the experiment on Citrobacter freundii (1000 ppm a.i.) was 5 each time. Further, the AA rating in the experiment on Alternaria alternata (500 ppm a.i.) and in the experiment on Alternaria alternata (1000 ppm a.i.) was 5 in each case. Besides, the SA rating with Staphylococcus aureus (500 ppm a.i.) and in the experiment on Staphylococcus aureus (1000 ppm a.i.) was 5 in each case. For the same compound, the PF rating with Penicillium funiculosum (500 ppm a.i.) and in the experiment with Penicillium funiculosum (1000 ppm a.i.) was 5 throughout. The AN rating in the experiment with Aspergillus niger (500 ppm a.i.) and in the experiment on Aspergillus niger (1000 ppm a.i.) was 5 in each case. Besides, the “Bacteria Mean Score” value amounted to 4.3 in the experiment with Bacteria (500 ppm a.i.) and 4.7 in the experiment on Bacteria (1000 ppm a.i.). The “Activity against the test bacteria and fungi” value in the experiment with test bacteria and fungi is listed as “good activity”. The PA rating in the experiment with Pseudomonas aeruginosa (500 ppm a.i.) is 1; with Pseudomonas aeruginosa (1000 ppm a.i.), 3. Besides, the “Fungi Mean Score” value in the experiment on Fungi [2] (500 ppm a.i.) and in the experiment with Fungi [2] (1000 ppm a.i.) was 5.0 throughout. Besides, the CA rating in the experiment with Candida albicans (500 ppm a.i.) and with Candida albicans (1000 ppm a.i.) was 5 in each case. The ML rating with Micrococcus luteus (500 ppm a.i.) and in the experiment with Micrococcus luteus (1000 ppm a.i.) was 5 in each case.

“(1RS, 5RS;1RS, 5SR)-5- (4-chlorobenzyl)-2,2-di- methyl-1-(1H-1,2,4-tri- azol-1-ylmethyl)cyclo- pentanol [Metconazole]”: the PM rating in the experiment with Proteus mirabilis (500 ppm a.i.) and with Proteus mirabilis (1000 ppm a.i.) was 0 throughout. Also, the EC rating in the experiment with Escherichia coli (500 ppm a.i.) and in the experiment with Escherichia coli (1000 ppm a.i.) was 0 each time. In addition, the SC rating with Saccharomyces cerevisiae (500 ppm a.i.) and in the experiment on Saccharomyces cerevisiae (1000 ppm a.i.) was 3 each time. The CF rating in the experiment with Citrobacter freundii (500 ppm a.i.) and in the experiment on Citrobacter freundii (1000 ppm a.i.) was 0 throughout. Moreover, the AA rating with Alternaria alternata (500 ppm a.i.) and in the experiment on Alternaria alternata (1000 ppm a.i.) was 5 each time. The SA rating in the experiment on Staphylococcus aureus (500 ppm a.i.) and with Staphylococcus aureus (1000 ppm a.i.) was 1 throughout. The PF rating in the experiment with Penicillium funiculosum (500 ppm a.i.) and in the experiment on Penicillium funiculosum (1000 ppm a.i.) was 5 throughout. Besides, the AN rating with Aspergillus niger (500 ppm a.i.) and with Aspergillus niger (1000 ppm a.i.) was 5 each time. Moreover, the “Bacteria Mean Score” value in the experiment on Bacteria (500 ppm a.i.) is listed as 0.5; in the experiment on Bacteria (1000 ppm a.i.), 0.7. Further, the “Spectrum of activity” value in the experiment on test bacteria and fungi (at both concentrations (1000 and 500 ppm a.i.)) was “only display antifungal activity”. Moreover, the PA rating in the experiment with Pseudomonas aeruginosa (500 ppm a.i.) and in the experiment on Pseudomonas aeruginosa (1000 ppm a.i.) was 0 each time. Besides, the “Fungi Mean Score” value in the experiment on Fungi [2] (500 ppm a.i.) and in the experiment with Fungi [2] (1000 ppm a.i.) was 4.2 in each case. Also, the CA rating in the experiment on Candida albicans (500 ppm a.i.) and in the experiment with Candida albicans (1000 ppm a.i.) was 3 throughout. Also, the ML rating in the experiment with Micrococcus luteus (500 ppm a.i.) is 2; with Micrococcus luteus (1000 ppm a.i.), 3.
